As usually defined, the EC50 is the concentration that produces a half-maximal response. For orientation: Ki means the dissociation constant of the complex between target and ligand, obtained from inhibition or displacement.

Several values for one entry are separate records, joined by “and”; a condition that tells them apart may be missing. Equal entries are not always repeated. Starred links: 1 amine or outer side, 2 acyl side, 3 side chain; linkers in the order of their positions; H or OH if unused. Non-standard residues stand in square brackets, D forms with d. Groups on a side chain read outwards from the residue. No end group written: not given here. *: point of attachment. C20 diacid = O=C(O)CCCCCCCCCCCCCCCCCCC(=O)*; γGlu = O=C(O)[C@H](CCC(=O)[*:2])N[*:1]; AEEA = NCCOCCOCC(=O)O; Aib = CC(C)(N)C(=O)O

The target of data set [1] is T1, GLP-1R (Homo sapiens, UniProt P43220). In words: ARRB2 recruitment, CHO-K1 PathHunter enzyme fragment complementation. The format is cell-based.
Description: ARRB2 recruitment to human GIPR and GLP-1R was quantified in CHO-K1 PathHunter cells expressing C-terminally fused ProLink1 receptors and Enzyme Acceptor fused ARRB2 from DiscoverX (Eurofins). […] Cell vials were thawed and added at equal volume in respective assay medium as previously stated. Recruitment of ARRB2 to activated receptors occurred at 37°C for 90 minutes, followed by cell lysis by the addition of 10 μL detection mixture containing β-galactosidase 93-0001 substrate to quantitate functional enzyme fragment complementation. Chemiluminescent signal was developed for 60 minutes at room temperature and quantified using an EnVision plate reader. Raw data were normalized to percent activation compared with control wells, and the curves were fit to the 4-parameter logistic model in Genedata Screener. As an alternative approach to measure β-arrestin recruitment, bioluminescent resonance energy transfer (BRET) was performed. […] Freestyle HEK cells (R79007, Thermo Fisher Scientific) were transfected in antibiotic-free media using Fugene-6 complexed in optiMEM (Thermo Fisher Scientific). […] Emission was measured at 460 nm (donor) and 610 nm (acceptor) wavelengths. The BRET ratio was calculated as acceptor emission divided by donor emission. […] Agonist-stimulated protein-to-protein interaction of 2 fusion molecules were detected with Nano-Glo substrate and standard luminescent detection. […]
The next data set deals with T2, SNAP-tagged GLP-1R (Homo sapiens, UniProt P43220).
T2 construct: expressed in transfected cells
In words: Real-time internalization assay, SNAP-tagged receptor. The format is cell-based. Conditions: HEK293; read-out: internalization of SNAP-tagged GLP-1R, Emax relative to GLP-1.

Data set [2] addresses T1, GLP-1R. As to the kind of experiment: On-cell Western internalization assay, HA-GLP-1R-EGFP HEK293. The format is cell-based. On the set-up: expressed in transfected cells. The following applies: HEK293, surface GLP-1R 30 minutes after ligand, normalized to 1 μM GLP-1(7-36); mean (SEM, n); read-out: GLP-1R internalization, maximum effect relative to GLP-1.
Description: For receptor internalization studies, DNA encoding human GIPR and GLP-1R with N-terminal 3X-HA epitope tags and C-terminal EGFP tags was constructed in pcDNA3.1.
HEK293 cells stably expressing HA-GIPR-EFGP or HA–GLP-1R–EFGP clones were plated into poly-D-lysine–coated 96-well microplates and cultured until cells reached 80%–90% confluency. On the day of assay, growth media was removed, and cells were rinsed once with prewarmed starvation media (growth media without serum or antibiotics, supplemented with 0.1% casein) and equilibrated with fresh media for 1 hour at 37°C, 5% CO2. […] Fixative was removed, and cells were washed in PBS and blocked with Odyssey blocking buffer (Licor) for 1 hour.
The conditions of data set [3]: native ligand, during meal induced incretin secretion; cited from earlier work.
Another data set has as its system pancreatic islets. As to the kind of experiment: Pancreatic islet perifusion, insulin secretion. Conditions: ex vivo perifusion, male mice, iAUC; GLP-1 300 pM, GIP 3 nM (after 1 μM Ex9), tirzepatide 1 nM.
The conditions of data set [4]: rodents, acute glucose challenge; read-out: in vivo EC50; cited from earlier work. The source says: (§1) We recognize that calculating pRO values has caveats (see Methods) and propose its use mainly for generating hypotheses and as a tool to probe mechanistic biology. For perspective, though, when examining the pRO values of other ligands, we observe that GLP-1R occupancy is also relatively low (about 10%). Based on established data, this makes sense in terms of the in vivo sensitivity of the GLP-1R system. […] In humans, active GLP-1 and GI ...

For data set [5], the system named is GLP-1R. The following applies: read-out: in vitro EC50; cited from earlier work.
Excerpt: as §1

For data set [6], the target named is mouse GLP-1R–LgBiT (mouse) (UniProt O35659).
The target in data set [7] is T3, human GIP receptor (GIPR) (human, UniProt P48546-1 22-466).
T3 construct: human GIPR (NP_000155), untagged, expressed in HEK293 cells at low, medium or high density; also called glucose-dependent insulinotropic polypeptide receptor; source: HEK293 clonal cell lines, stably transfected (pcDNA3.1)
T3 sequence (looked up): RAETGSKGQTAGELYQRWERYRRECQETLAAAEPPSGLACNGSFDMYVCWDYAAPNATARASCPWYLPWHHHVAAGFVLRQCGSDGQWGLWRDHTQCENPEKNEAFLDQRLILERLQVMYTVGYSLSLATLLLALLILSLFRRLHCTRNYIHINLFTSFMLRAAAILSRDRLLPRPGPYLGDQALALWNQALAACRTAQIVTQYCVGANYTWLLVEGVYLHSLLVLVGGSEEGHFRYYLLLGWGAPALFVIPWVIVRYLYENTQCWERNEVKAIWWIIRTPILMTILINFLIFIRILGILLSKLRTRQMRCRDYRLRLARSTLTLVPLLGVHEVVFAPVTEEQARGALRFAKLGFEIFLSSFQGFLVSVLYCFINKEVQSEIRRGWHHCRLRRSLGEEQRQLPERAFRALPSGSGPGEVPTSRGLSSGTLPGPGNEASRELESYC
As to the kind of experiment: radioligand binding. Conditions: one partner purified.

For data set [8], the target named is T3, human GIP receptor (GIPR). In words: cell-based or functional assay.
Data set [9] addresses T3, human GIP receptor (GIPR). In words: radioligand binding; competition with [125I]GIP(1-42)OH (GIPR) or [125I]GLP-1(7-36)NH2 (GLP-1R), ~0.12–0.20 nM, on membranes of HEK293 cells expressing the human receptor held on WGA-PVT SPA beads; 1.0 mM MgCl2, 2.5 mM CaCl2, 0.003% w/v Tween-20, 0.1% w/v bacitracin, 25 mM HEPES pH 7.4; 18 hours at room temperature; Ki by the Cheng-Prussoff correction. Conditions: one partner purified.

Chain of mouse GLP-1R–LgBiT (mouse) (O35659 22-463): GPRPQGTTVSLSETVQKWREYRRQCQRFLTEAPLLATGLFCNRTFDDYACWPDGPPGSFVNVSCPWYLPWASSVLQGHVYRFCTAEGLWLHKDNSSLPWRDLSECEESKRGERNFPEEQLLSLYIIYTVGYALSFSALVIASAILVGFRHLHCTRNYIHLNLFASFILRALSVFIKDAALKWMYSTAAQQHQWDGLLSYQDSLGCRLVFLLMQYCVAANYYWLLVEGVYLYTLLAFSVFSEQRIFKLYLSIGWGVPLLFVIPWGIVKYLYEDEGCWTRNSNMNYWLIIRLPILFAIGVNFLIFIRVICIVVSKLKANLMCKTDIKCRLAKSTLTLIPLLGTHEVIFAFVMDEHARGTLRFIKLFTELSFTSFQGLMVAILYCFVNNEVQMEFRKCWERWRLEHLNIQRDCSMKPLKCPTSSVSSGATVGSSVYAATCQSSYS
T1 sequence (P43220 24-463): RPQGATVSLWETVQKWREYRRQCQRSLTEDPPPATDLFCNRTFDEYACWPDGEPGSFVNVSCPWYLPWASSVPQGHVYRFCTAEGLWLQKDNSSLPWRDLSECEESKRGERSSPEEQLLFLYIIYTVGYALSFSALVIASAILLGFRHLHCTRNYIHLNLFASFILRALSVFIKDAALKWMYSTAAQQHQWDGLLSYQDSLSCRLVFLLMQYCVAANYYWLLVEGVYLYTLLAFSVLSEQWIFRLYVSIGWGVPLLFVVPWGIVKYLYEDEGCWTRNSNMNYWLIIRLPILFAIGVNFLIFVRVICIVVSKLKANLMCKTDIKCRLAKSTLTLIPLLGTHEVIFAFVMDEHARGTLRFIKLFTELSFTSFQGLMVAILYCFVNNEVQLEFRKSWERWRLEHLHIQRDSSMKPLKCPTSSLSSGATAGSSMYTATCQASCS
T2 sequence (P43220 24-463): as above

For the molecule `CC[C@H](C)[C@H](NC(=O)[C@H](CC(C)C)NC(=O)[C@H](Cc1c[nH]c2ccccc12)NC(=O)[C@H](CCC(N)=O)NC(=O)[C@@H](NC(=O)[C@H](Cc1ccccc1)NC(=O)[C@H](C)NC(=O)[C@H](CCCCNC(=O)COCCOCCNC(=O)COCCOCCNC(=O)CC[C@H](NC(=O)CCCCCCCCCCCCCCCCCCC(=O)O)C(=O)O)NC(=O)[C@H](CCC(N)=O)NC(=O)[C@H](C)NC(=O)[C@@H](NC(=O)[C@H](CCCCN)NC(=O)[C@H](CC(=O)O)NC(=O)[C@H](CC(C)C)NC(=O)C(C)(C)NC(=O)[C@@H](NC(=O)[C@H](CO)NC(=O)[C@H](Cc1ccc(O)cc1)NC(=O)[C@H](CC(=O)O)NC(=O)[C@H](CO)NC(=O)[C@@H](NC(=O)[C@H](Cc1ccccc1)NC(=O)[C@@H](NC(=O)CNC(=O)[C@H](CCC(=O)O)NC(=O)C(C)(C)NC(=O)[C@@H](N)Cc1ccc(O)cc1)[C@@H](C)O)[C@@H](C)O)[C@@H](C)CC)[C@@H](C)CC)C(C)C)C(=O)N[C@@H](C)C(=O)NCC(=O)NCC(=O)N1CCC[C@H]1C(=O)N[C@@H](CO)C(=O)N[C@@H](CO)C(=O)NCC(=O)N[C@@H](C)C(=O)N1CCC[C@H]1C(=O)N1CCC[C@H]1C(=O)N1CCC[C@H]1C(=O)N[C@@H](CO)C(N)=O` [Tirzepatide], the Emax on GLP-1R [1] is < 10%; on SNAP-tagged GLP-1R, < 40%; on GLP-1R [2], 40%.

`CC[C@H](C)[C@H](NC(=O)[C@H](Cc1ccccc1)NC(=O)[C@H](CCC(=O)O)NC(=O)[C@H](CCCCN)NC(=O)[C@H](C)NC(=O)[C@H](C)NC(=O)[C@H](CCC(N)=O)NC(=O)CNC(=O)[C@H](CCC(=O)O)NC(=O)[C@H](CC(C)C)NC(=O)[C@H](Cc1ccc(O)cc1)NC(=O)[C@H](CO)NC(=O)[C@H](CO)NC(=O)[C@@H](NC(=O)[C@H](CC(=O)O)NC(=O)[C@H](CO)NC(=O)[C@@H](NC(=O)[C@H](Cc1ccccc1)NC(=O)[C@@H](NC(=O)CNC(=O)[C@H](CCC(=O)O)NC(=O)[C@H](C)NC(=O)[C@@H](N)Cc1c[nH]cn1)[C@@H](C)O)[C@@H](C)O)C(C)C)C(=O)N[C@@H](C)C(=O)N[C@@H](Cc1c[nH]c2ccccc12)C(=O)N[C@@H](CC(C)C)C(=O)N[C@H](C(=O)N[C@@H](CCCCN)C(=O)NCC(=O)N[C@@H](CCCNC(=N)N)C(N)=O)C(C)C` [GLP-1(7-36), GLP-1(7-36)NH2]: in [3], the “Css (free): range of Cmax values” is 5-15^E pM. Also, the “insulin secretion of Arrb1βcell–/– islets compared with control islets” value in the data set with pancreatic islets is on record as “secreted more insulin”. Take exendin-4: the concentration giving a half-maximal response (EC50) was 0.04 nM in data set [4] and 0.26 nM with GLP-1R [5]. Consider Tirzepatide (LY3298176) (peptide), for which, in data set [6], the other is 6.6 nM and 2.4 nM.

For `CC[C@H](C)[C@H](NC(=O)[C@H](CO)NC(=O)[C@H](Cc1ccc(O)cc1)NC(=O)[C@H](CC(=O)O)NC(=O)[C@H](CO)NC(=O)[C@@H](NC(=O)[C@H](Cc1ccccc1)NC(=O)[C@@H](NC(=O)CNC(=O)[C@H](CCC(=O)O)NC(=O)[C@H](C)NC(=O)[C@@H](N)Cc1ccc(O)cc1)[C@@H](C)O)[C@@H](C)CC)C(=O)N[C@@H](C)C(=O)N[C@@H](CCSC)C(=O)N[C@@H](CC(=O)O)C(=O)N[C@@H](CCCCN)C(=O)N[C@H](C(=O)N[C@@H](Cc1c[nH]cn1)C(=O)N[C@@H](CCC(N)=O)C(=O)N[C@@H](CCC(N)=O)C(=O)N[C@@H](CC(=O)O)C(=O)N[C@@H](Cc1ccccc1)C(=O)N[C@H](C(=O)N[C@@H](CC(N)=O)C(=O)N[C@@H](Cc1c[nH]c2ccccc12)C(=O)N[C@@H](CC(C)C)C(=O)N[C@@H](CC(C)C)C(=O)N[C@@H](C)C(=O)N[C@@H](CCC(N)=O)C(=O)N[C@@H](CCCCN)C(=O)NCC(=O)N[C@@H](CCCCN)C(=O)N[C@@H](CCCCN)C(=O)N[C@@H](CC(N)=O)C(=O)N[C@@H](CC(=O)O)C(=O)N[C@@H](Cc1c[nH]c2ccccc12)C(=O)N[C@@H](CCCCN)C(=O)N[C@@H](Cc1c[nH]cn1)C(=O)N[C@@H](CC(N)=O)C(=O)N[C@H](C(=O)N[C@H](C(=O)N[C@@H](CCC(N)=O)C(N)=O)[C@@H](C)O)[C@@H](C)CC)C(C)C)[C@@H](C)CC` [GIP(1-42), GIP(1-42)NH2], the “insulin secretion of Arrb1βcell–/– islets compared with control islets” value in the data set on pancreatic islets is “not different”. On to Y[Aib]EGTFTSDYSI[Aib]LDKIAQK([AEEA-AEEA-γGlu-C20 diacid])AFVQWLIAGGPSSGAPPPS-NH2 [Tirzepatide (LY3298176)], for which, in data set [7], the affinity, expressed as Ki, was 0.163 nM.

B1: Semaglutide (peptide)
chain: HAEGTFTSDVSSYLEGQAAKEFIAWLVRGRG
modifications: Aib at the 2nd residue (written X in the letters); C18 diacid-γGlu-(AEEA)2 on the lysine at the 20th residue
As to B1, in data set [8], the “EC50 of cAMP accumulation, HEK293 cells with low density of human GIPR (1,700 receptors/cell)” value was > 850 nM and the “EC50 of cAMP accumulation, HEK293 cells with medium density of human GIPR (6,400 receptors/cell)” value was > 100 nM. The Ki in data set [9] is > 500 nM.

The values are drawn from paper PMC7526454 (JCI Insight, 2020).
